Test [1] deals with T1, ALDH1A1 (Homo sapiens, UniProt P00352).
T1 construct: His-tag; made in house; host or cells: bacterial cells
T1 sequence (P00352 1-501): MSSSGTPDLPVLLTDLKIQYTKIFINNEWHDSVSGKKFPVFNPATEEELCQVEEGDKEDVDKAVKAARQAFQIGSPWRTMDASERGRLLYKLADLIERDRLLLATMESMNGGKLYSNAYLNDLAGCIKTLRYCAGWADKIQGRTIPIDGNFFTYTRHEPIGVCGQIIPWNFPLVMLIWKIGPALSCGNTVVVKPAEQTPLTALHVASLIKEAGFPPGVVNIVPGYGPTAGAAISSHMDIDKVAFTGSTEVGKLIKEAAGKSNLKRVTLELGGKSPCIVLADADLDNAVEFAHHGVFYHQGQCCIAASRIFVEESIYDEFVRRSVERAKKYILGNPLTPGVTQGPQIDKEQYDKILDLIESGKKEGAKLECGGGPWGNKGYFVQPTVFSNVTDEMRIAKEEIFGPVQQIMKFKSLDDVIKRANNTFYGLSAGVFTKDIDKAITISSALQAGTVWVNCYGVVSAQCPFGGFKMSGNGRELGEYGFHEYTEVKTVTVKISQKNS
In words: IC50 evaluation, NADH formation at 340 nm (Tecan SUNRISE). It is filed as biochemical. To be noted: ALDH1A1; 20 mM acetaldehyde, 500 μM NAD+, 15% DMSO, 2.7 μM isoenzyme; read-out: IC50. The procedure: (§1) A common protocol to express and purify all three members of the ALDHIA subfamily has been optimized. Briefly, induced cells, collected by centrifugation, were re-suspended in an appropriate volume of lysis buffer (50 mM Na2HPO4, 300 mM NaCl, 1 mM β-mercaptoethanol, 20 mM imidazole, pH 7.5) added of benzonase nuclease (250 U/μL) and Protease inhibitor cocktail from SIGMA. After ultracentrifugation, the clarified sample was purified by a His-tag affinity chromatography followed by size-exclusion chromatography, using an AKTA FPLC system, at 4° C. To evaluate the purity and homogeneity of the protein, after each purification step, eluted d fractions were analyzed by SDS-PAGE and the protein quantification was always determined by Bradford protein assay.
(§2) IC50 evaluation: on a Tecan—SUNRISE, probe 13 was tested in a serial dilution series from 200 μM to 3, 125 μM, against all the three isoenzymes. The recipe of reaction buffer was: 20 mM Tris HCl pH=8, 150 mM KCl, 1 mM B-mercaptoethanol, 500 μM NAD^+, 15% DMSO fixed, 20 mM acetaldehyde and 2.7 μM each isoenzyme. The analysis was conducted measuring the NADH formation, that has a specific absorbance wavelength (340 nm). The test was performed in triplicate with all the three isoenzymes.

Test [2] has as its target T2, ALDH1A3 (Homo sapiens, UniProt P47895).
T2 construct: His-tag; made in house; host or cells: bacterial cells
T2 sequence (P47895 1-512): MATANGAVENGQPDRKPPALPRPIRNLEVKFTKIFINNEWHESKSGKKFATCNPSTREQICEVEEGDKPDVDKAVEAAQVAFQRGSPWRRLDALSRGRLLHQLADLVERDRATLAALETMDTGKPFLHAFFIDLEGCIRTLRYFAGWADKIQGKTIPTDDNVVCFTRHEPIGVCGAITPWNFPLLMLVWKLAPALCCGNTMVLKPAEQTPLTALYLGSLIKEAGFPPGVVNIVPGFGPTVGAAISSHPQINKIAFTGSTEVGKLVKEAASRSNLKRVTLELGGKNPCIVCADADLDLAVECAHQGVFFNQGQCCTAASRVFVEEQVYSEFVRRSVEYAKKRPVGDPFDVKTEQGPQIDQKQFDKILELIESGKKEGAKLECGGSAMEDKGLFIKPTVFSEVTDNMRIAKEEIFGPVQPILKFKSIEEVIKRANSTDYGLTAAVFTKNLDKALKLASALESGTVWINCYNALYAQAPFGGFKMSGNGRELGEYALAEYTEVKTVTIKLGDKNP
Described as above. The test is classed as biochemical. To be noted: ALDH1A3; 20 mM acetaldehyde, 500 μM NAD+, 15% DMSO, 2.7 μM isoenzyme; read-out: IC50. The procedure: as §1, §2

Test [3] deals with U87MG glioblastoma (ALDH1A3+). The test can be described thus: Confocal fluorescence of probes in cell lines. It is filed as cell-based, human. To be noted: 10 μM to 100 nM, after 2 h. The procedure: All 3 enzymes belonging to the subfamily 1A of aldehyde dehydrogenases were expressed recombinantly in bacterial cells and purified to homogeneity. The pure enzymes were then used to study the interaction with the molecules according to the invention, using various in vitro biochemical assays. In particular, the affinity for the isoenzymes of the selected molecules was measured through the use of a TECAN SPARK and a TECAN SUNRISE. Fluorescence assays were performed in the presence of different protein concentrations and the activity assays were conducted by measuring NAD^+ consumption. According to their specific activity, all molecules were characterized by values of KD, KM, Ki and IC50, showing a net selectivity in specifically binding the ALDH1A3 enzyme. […]
Human U87MG glioblastoma were used as ALDH1A3+ cell lines, HEK293T as ALDH1A2+ cell line, human foetal astrocytes (hASTRO) as ALDH1A1+ cell line and 4T1 mammary carcinoma as triple negative ALDHIA subfamily (checked with Western Blot analysis and RT-PCR). […] Moreover, we incubated the two probes with cells and analyzed with FACS and we observed a significant positivity in U87MG cells, too.

pIC50: −log10 of the molar value. Entries after “also recorded” stand apart in the source; their conditions may differ.

The values below come from patent publication US20250281649A1, “PROBE DIRECTED TO ENZYME ALDH1A3 AND USE THEREOF IN THE DIAGNOSIS OF GLIOBLASTOMA” (Universita' Degli Studi Del Piemonte Orientale "A. Avogadro", priority 2021, published 2025).

Take `COc1cc(/C=C/C(=O)/C=C(O)/C=C/c2ccc(OCc3cn(CCOc4ccc(C=O)cc4)nn3)c(OC)c2)ccc1O` [Compound 13]: the pIC50 in test [1] is 3.71; in test [2] it was 5.82. The “fluorescence signal in cells” value in test [3] is recorded as “selectivity; also recorded: selectively illuminate cells expressing only ALDH1A3”.

As to `CCOC(=O)Cn1cc(COc2ccc(/C=C/C(O)=C/C(=O)/C=C/c3ccc(O)c(OC)c3)cc2OC)nn1` [Compound 14], the figures for the pIC50 in test [1] and in test [2] were 3.94 and 4.84, respectively. Moreover, in test [3], the “fluorescence signal in cells” value is recorded as “selectivity”.

As usually defined, the pIC50 is the negative decadic logarithm of the IC50, by convention in mol/L.
